Measurements reported in ChEMBL document CHEMBL5370616, “Novel Nitric Oxide Donor-Azole Conjugation Strategy for Efficient Treatment of Cryptococcus neoformans Infections” (J Med Chem, 2023).
Values after ≈ are worked out from the molar mass of the structure shown.

Test system: Candida albicans
Experiment: Antifungal activity against Candida albicans SC5314 assessed as reduction in fungal growth incubated for 48 hrs by CLSI protocol based microplate reader analysis
Assay type: functional

MIC80	SMILES
1 µg/mL (≈ 1.14 µM)	CN(Cc1ccc(OCCCOc2ccc(CC(=O)OCCOCCOc3no[n+]([O-])c3S(=O)(=O)c3ccccc3)cc2)cc1)CC(O)(Cn1cncn1)c1ccc(F)cc1F (stereo not drawn)
1 µg/mL (≈ 1.37 µM)	CN(Cc1ccc(OCCCOc2ccc(CC(=O)OCc3ccccc3CO[N+](=O)[O-])cc2)cc1)CC(O)(Cn1cncn1)c1ccc(F)cc1F (stereo not drawn)
16 µg/mL (≈ 23.9 µM)	CN(Cc1ccc(CNCCCOc2no[n+]([O-])c2S(=O)(=O)c2ccccc2)cc1)CC(O)(Cn1cncn1)c1ccc(F)cc1F (stereo not drawn)
16 µg/mL (≈ 18.6 µM)	CN(Cc1ccc(OCCCOc2ccc(CC(=O)OCC#CCOc3no[n+]([O-])c3S(=O)(=O)c3ccccc3)cc2)cc1)CC(O)(Cn1cncn1)c1ccc(F)cc1F (stereo not drawn)
> 64 µg/mL	CN(CC(O)(Cn1cncn1)c1ccc(F)cc1F)c1cc(O/N=[N+](\[O-])N2CCC[C@@H]2CO)c([N+](=O)[O-])cc1[N+](=O)[O-] (stereo partly drawn)
4 µg/mL (≈ 4.64 µM)	CN(Cc1ccc(OCCCOc2ccc(CC(=O)OCCCCOc3no[n+]([O-])c3S(=O)(=O)c3ccccc3)cc2)cc1)CC(O)(Cn1cncn1)c1ccc(F)cc1F (stereo not drawn)
64 µg/mL (≈ 97.6 µM)	CN(Cc1ccc(CNCCOc2no[n+]([O-])c2S(=O)(=O)c2ccccc2)cc1)CC(O)(Cn1cncn1)c1ccc(F)cc1F (stereo not drawn)
> 64 µg/mL	CN(CC(O)(Cn1cncn1)c1ccc(F)cc1F)c1cc(O/N=[N+](\[O-])N(C)CCO)c([N+](=O)[O-])cc1[N+](=O)[O-] (stereo not drawn)
2 µg/mL (≈ 2.93 µM)	CN(Cc1ccc(OCCCOc2ccc(CC(=O)OCCCCO[N+](=O)[O-])cc2)cc1)CC(O)(Cn1cncn1)c1ccc(F)cc1F (stereo not drawn)
> 64 µg/mL	CN(CC(O)(Cn1cncn1)c1ccc(F)cc1F)c1cc(O/N=[N+](\[O-])N2CCCC2)c([N+](=O)[O-])cc1[N+](=O)[O-] (stereo not drawn)
> 64 µg/mL	CN1CCN(/[N+]([O-])=N/Oc2cc(N(C)CC(O)(Cn3cncn3)c3ccc(F)cc3F)c([N+](=O)[O-])cc2[N+](=O)[O-])CC1 (stereo not drawn)
> 64 µg/mL	CN(CC(O)(Cn1cncn1)c1ccc(F)cc1F)c1cc(O/N=[N+](\[O-])N2CCC(O)CC2)c([N+](=O)[O-])cc1[N+](=O)[O-] (stereo not drawn)

Test system: Nakaseomyces glabratus
Experiment: Antifungal activity against Candida glabrata 10639 assessed as reduction in fungal growth incubated for 48 hrs by CLSI protocol based microplate reader analysis
Assay type: functional

MIC80	SMILES
1 µg/mL (≈ 1.14 µM)	CN(Cc1ccc(OCCCOc2ccc(CC(=O)OCCOCCOc3no[n+]([O-])c3S(=O)(=O)c3ccccc3)cc2)cc1)CC(O)(Cn1cncn1)c1ccc(F)cc1F (stereo not drawn)
1 µg/mL (≈ 1.37 µM)	CN(Cc1ccc(OCCCOc2ccc(CC(=O)OCc3ccccc3CO[N+](=O)[O-])cc2)cc1)CC(O)(Cn1cncn1)c1ccc(F)cc1F (stereo not drawn)
8 µg/mL (≈ 11.9 µM)	CN(Cc1ccc(CNCCCOc2no[n+]([O-])c2S(=O)(=O)c2ccccc2)cc1)CC(O)(Cn1cncn1)c1ccc(F)cc1F (stereo not drawn)
2 µg/mL (≈ 2.33 µM)	CN(Cc1ccc(OCCCOc2ccc(CC(=O)OCC#CCOc3no[n+]([O-])c3S(=O)(=O)c3ccccc3)cc2)cc1)CC(O)(Cn1cncn1)c1ccc(F)cc1F (stereo not drawn)
> 64 µg/mL	CN(CC(O)(Cn1cncn1)c1ccc(F)cc1F)c1cc(O/N=[N+](\[O-])N2CCC[C@@H]2CO)c([N+](=O)[O-])cc1[N+](=O)[O-] (stereo partly drawn)
4 µg/mL (≈ 4.64 µM)	CN(Cc1ccc(OCCCOc2ccc(CC(=O)OCCCCOc3no[n+]([O-])c3S(=O)(=O)c3ccccc3)cc2)cc1)CC(O)(Cn1cncn1)c1ccc(F)cc1F (stereo not drawn)
8 µg/mL (≈ 12.2 µM)	CN(Cc1ccc(CNCCOc2no[n+]([O-])c2S(=O)(=O)c2ccccc2)cc1)CC(O)(Cn1cncn1)c1ccc(F)cc1F (stereo not drawn)
> 64 µg/mL	CN(CC(O)(Cn1cncn1)c1ccc(F)cc1F)c1cc(O/N=[N+](\[O-])N(C)CCO)c([N+](=O)[O-])cc1[N+](=O)[O-] (stereo not drawn)
0.5 µg/mL (≈ 0.731 µM)	CN(Cc1ccc(OCCCOc2ccc(CC(=O)OCCCCO[N+](=O)[O-])cc2)cc1)CC(O)(Cn1cncn1)c1ccc(F)cc1F (stereo not drawn)
> 64 µg/mL	CN(CC(O)(Cn1cncn1)c1ccc(F)cc1F)c1cc(O/N=[N+](\[O-])N2CCCC2)c([N+](=O)[O-])cc1[N+](=O)[O-] (stereo not drawn)
> 64 µg/mL	CN1CCN(/[N+]([O-])=N/Oc2cc(N(C)CC(O)(Cn3cncn3)c3ccc(F)cc3F)c([N+](=O)[O-])cc2[N+](=O)[O-])CC1 (stereo not drawn)
> 64 µg/mL	CN(CC(O)(Cn1cncn1)c1ccc(F)cc1F)c1cc(O/N=[N+](\[O-])N2CCC(O)CC2)c([N+](=O)[O-])cc1[N+](=O)[O-] (stereo not drawn)

Test system: Cryptococcus neoformans
Experiment: Antifungal activity against Cryptococcus neoformans H99 assessed as reduction in fungal growth incubated for 72 hrs by CLSI protocol based microplate reader analysis
Assay type: functional

MIC80	SMILES
1 µg/mL (≈ 1.14 µM)	CN(Cc1ccc(OCCCOc2ccc(CC(=O)OCCOCCOc3no[n+]([O-])c3S(=O)(=O)c3ccccc3)cc2)cc1)CC(O)(Cn1cncn1)c1ccc(F)cc1F (stereo not drawn)
0.25 µg/mL (≈ 0.342 µM)	CN(Cc1ccc(OCCCOc2ccc(CC(=O)OCc3ccccc3CO[N+](=O)[O-])cc2)cc1)CC(O)(Cn1cncn1)c1ccc(F)cc1F (stereo not drawn)
2 µg/mL (≈ 2.99 µM)	CN(Cc1ccc(CNCCCOc2no[n+]([O-])c2S(=O)(=O)c2ccccc2)cc1)CC(O)(Cn1cncn1)c1ccc(F)cc1F (stereo not drawn)
2 µg/mL (≈ 2.33 µM)	CN(Cc1ccc(OCCCOc2ccc(CC(=O)OCC#CCOc3no[n+]([O-])c3S(=O)(=O)c3ccccc3)cc2)cc1)CC(O)(Cn1cncn1)c1ccc(F)cc1F (stereo not drawn)
64 µg/mL (≈ 108 µM)	CN(CC(O)(Cn1cncn1)c1ccc(F)cc1F)c1cc(O/N=[N+](\[O-])N2CCC[C@@H]2CO)c([N+](=O)[O-])cc1[N+](=O)[O-] (stereo partly drawn)
4 µg/mL (≈ 4.64 µM)	CN(Cc1ccc(OCCCOc2ccc(CC(=O)OCCCCOc3no[n+]([O-])c3S(=O)(=O)c3ccccc3)cc2)cc1)CC(O)(Cn1cncn1)c1ccc(F)cc1F (stereo not drawn)
2 µg/mL (≈ 3.05 µM)	CN(Cc1ccc(CNCCOc2no[n+]([O-])c2S(=O)(=O)c2ccccc2)cc1)CC(O)(Cn1cncn1)c1ccc(F)cc1F (stereo not drawn)
64 µg/mL (≈ 113 µM)	CN(CC(O)(Cn1cncn1)c1ccc(F)cc1F)c1cc(O/N=[N+](\[O-])N(C)CCO)c([N+](=O)[O-])cc1[N+](=O)[O-] (stereo not drawn)
0.5 µg/mL (≈ 0.731 µM)	CN(Cc1ccc(OCCCOc2ccc(CC(=O)OCCCCO[N+](=O)[O-])cc2)cc1)CC(O)(Cn1cncn1)c1ccc(F)cc1F (stereo not drawn)
64 µg/mL (≈ 114 µM)	CN(CC(O)(Cn1cncn1)c1ccc(F)cc1F)c1cc(O/N=[N+](\[O-])N2CCCC2)c([N+](=O)[O-])cc1[N+](=O)[O-] (stereo not drawn)
64 µg/mL (≈ 108 µM)	CN1CCN(/[N+]([O-])=N/Oc2cc(N(C)CC(O)(Cn3cncn3)c3ccc(F)cc3F)c([N+](=O)[O-])cc2[N+](=O)[O-])CC1 (stereo not drawn)
64 µg/mL (≈ 108 µM)	CN(CC(O)(Cn1cncn1)c1ccc(F)cc1F)c1cc(O/N=[N+](\[O-])N2CCC(O)CC2)c([N+](=O)[O-])cc1[N+](=O)[O-] (stereo not drawn)

Test system: Candida albicans
Experiment: Antifungal activity against Candida albicans 0304103 assessed as reduction in fungal growth incubated for 48 hrs by CLSI protocol based microplate reader analysis
Assay type: functional

MIC80	SMILES
> 64 µg/mL	CN(Cc1ccc(OCCCOc2ccc(CC(=O)OCCOCCOc3no[n+]([O-])c3S(=O)(=O)c3ccccc3)cc2)cc1)CC(O)(Cn1cncn1)c1ccc(F)cc1F (stereo not drawn)
> 64 µg/mL	CN(Cc1ccc(OCCCOc2ccc(CC(=O)OCc3ccccc3CO[N+](=O)[O-])cc2)cc1)CC(O)(Cn1cncn1)c1ccc(F)cc1F (stereo not drawn)
32 µg/mL (≈ 47.8 µM)	CN(Cc1ccc(CNCCCOc2no[n+]([O-])c2S(=O)(=O)c2ccccc2)cc1)CC(O)(Cn1cncn1)c1ccc(F)cc1F (stereo not drawn)
> 64 µg/mL	CN(Cc1ccc(OCCCOc2ccc(CC(=O)OCC#CCOc3no[n+]([O-])c3S(=O)(=O)c3ccccc3)cc2)cc1)CC(O)(Cn1cncn1)c1ccc(F)cc1F (stereo not drawn)
> 64 µg/mL	CN(CC(O)(Cn1cncn1)c1ccc(F)cc1F)c1cc(O/N=[N+](\[O-])N2CCC[C@@H]2CO)c([N+](=O)[O-])cc1[N+](=O)[O-] (stereo partly drawn)
> 64 µg/mL	CN(Cc1ccc(OCCCOc2ccc(CC(=O)OCCCCOc3no[n+]([O-])c3S(=O)(=O)c3ccccc3)cc2)cc1)CC(O)(Cn1cncn1)c1ccc(F)cc1F (stereo not drawn)
64 µg/mL (≈ 97.6 µM)	CN(Cc1ccc(CNCCOc2no[n+]([O-])c2S(=O)(=O)c2ccccc2)cc1)CC(O)(Cn1cncn1)c1ccc(F)cc1F (stereo not drawn)
> 64 µg/mL	CN(CC(O)(Cn1cncn1)c1ccc(F)cc1F)c1cc(O/N=[N+](\[O-])N(C)CCO)c([N+](=O)[O-])cc1[N+](=O)[O-] (stereo not drawn)
> 64 µg/mL	CN(Cc1ccc(OCCCOc2ccc(CC(=O)OCCCCO[N+](=O)[O-])cc2)cc1)CC(O)(Cn1cncn1)c1ccc(F)cc1F (stereo not drawn)
> 64 µg/mL	CN(CC(O)(Cn1cncn1)c1ccc(F)cc1F)c1cc(O/N=[N+](\[O-])N2CCCC2)c([N+](=O)[O-])cc1[N+](=O)[O-] (stereo not drawn)
> 64 µg/mL	CN1CCN(/[N+]([O-])=N/Oc2cc(N(C)CC(O)(Cn3cncn3)c3ccc(F)cc3F)c([N+](=O)[O-])cc2[N+](=O)[O-])CC1 (stereo not drawn)
> 64 µg/mL	CN(CC(O)(Cn1cncn1)c1ccc(F)cc1F)c1cc(O/N=[N+](\[O-])N2CCC(O)CC2)c([N+](=O)[O-])cc1[N+](=O)[O-] (stereo not drawn)
